Consider 13 compounds from US9198422B2, “Pesticidal pyrazole compounds” (BASF SE, priority 2011, dated 2015).

Holding throughout (format): in vivo
One experiment relates to Bemisia argentifolii. The experiment in a line: B.3 Silverleaf whitefly, adult, spray test on cotton plants. Particulars: for mortality at 1 ppm / mortality at 3 ppm / mortality at 100 ppm: read-out: % mortality in comparison to untreated controls; for mortality at 10 ppm: 72 h, 3 days after treatment, read-out: mortality in comparison with untreated controls. The method, then:
B.3 Silverleaf Whitefly (Bemisia argentifolii, Adult)
(§1) The active compounds were formulated in cyclohexanone as a 10,000 ppm solution supplied in 1.3 ml ABgene® tubes. These tubes were inserted into an automated electrostatic sprayer equipped with an atomizing nozzle and they served as stock solutions for which lower dilutions were made in 1:1 (vol:vol) water:aceton. A nonionic surfactant (Kinetic®) was included in the solution at a volume of 0.01% (v/v).
Cotton plants at the cotyledon stage (one plant per pot) were sprayed by an automated electrostatic plant sprayer equipped with an atomizing spray nozzle. The plants were dried in the sprayer fume hood and then removed from the sprayer. Each pot was placed into a plastic cup and 10 to 12 whitefly adults (approximately 3-5 days old) were introduced. The insects were collected using an aspirator and 0.6 cm, nontoxic Tygon® tubing (R-3603) connected to a barrier pipette tip. The tip, containing the collected insects, was then gently inserted into the soil containing the treated plant, allowing insects to crawl out of the tip to reach the foliage for feeding. Cups were covered with a reusable screened lid (150-micron mesh polyester screen PeCap from Tetko, Inc.). Test plants were maintained in a growth room at 25° C. and 20-40% relative humidity for 3 days, avoiding direct exposure to fluorescent light (24 hour photoperiod) to prevent trapping of heat inside the cup. Mortality was assessed 3 days after treatment, compared to untreated control plants.

In a further experiment the test system is Nephotettix virescens. The experiment in a line: B.9 Rice green leafhopper spray test on rice seedlings. To be noted: 72 h, after 72 hours, read-out: mortality in comparison with untreated controls. The method, then:
B.9 Rice Green Leafhopper (Nephotettix virescens)
Rice seedlings were cleaned and washed 24 hours before spraying. The active compounds were formulated in 1:1 (vol:vol) water:aceton, and 0.1% vol/vol surfactant (EL 620) was added. Potted rice seedlings were sprayed with 5 ml test solution, air dried, placed in cages and inoculated with 10 adults. Treated rice plants were kept at 28-29° C. and relative humidity of 50-60%. Percent mortality was recorded after 72 hours.

The next experiment concerns Plutella xylostella. The experiment in a line: B.10 Diamondback moth cabbage leaf disk dip test. Particulars: 500 ppm; 72 h. The method, then:
B.10 Diamondback Moth (Plutella xylostella)
The active compounds were formulated in 1:1 (vol:vol) water:aceton and 0.1% (vol/vol) Alkamuls EL 620 surfactant. A 6 cm leaf disk of cabbage leaves was dipped in the test solution for 3 seconds and allowed to air dry in a Petri plate lined with moist filter paper. The leaf disk was inoculated with 10 third instar larvae and kept at 25-27° C. and 50-60% humidity for 3 days. Mortality was assessed after 72 h of treatment.

Another experiment has as its system Dichromothrips corbetti. Put plainly: B.8 Orchid thrips petal dip test. Particulars: 72 h, after 72 hours, read-out: mortality in comparison with untreated controls. The method, then:
B.8 Orchid Thrips (Dichromothrips corbetti)
The active compounds were formulated as a 1:1 (vol:vol) water:aceton solution. Surfactant (Alkamuls EL 620) was added at the rate of 0.1% (vol/vol). Vanda orchids petals were cleaned, washed and air dried prior to spraying. Petals were dipped into the test solution for 3 seconds, air dried, placed inside a resealable plastic and inoculated with 20 adults. The treated petals were kept inside the holding room at 28-29° C. and relative humidity of 50-60%. Percent mortality was recorded after 72 hours.

The next experiment has as its system Aphis craccivora. Put plainly: B.1 Cowpea aphid spray test on potted cowpea plants. To be noted: for mortality at 0.3 ppm: read-out: % mortality in comparison to untreated controls; for mortality at 500 ppm: population reduction assessed after 24, 72 and 120 hours, read-out: mortality in comparison with untreated controls. As to the method:
If not otherwise specified the test solutions were prepared as follows:
The active compound was dissolved at the desired concentration in a mixture of 1:1 (vol:vol) distilled water:aceton. The test solution was prepared at the day of use and in general at concentrations of ppm (wt/vol).
B.1 Cowpea Aphid (Aphis craccivora)
Potted cowpea plants colonized with 100-150 aphids of various stages were sprayed after the pest population had been recorded. Population reduction was assessed after 24, 72, and 120 hours.

The next experiment has as its system Aphis gossypii. Put plainly: B.2 Cotton aphid, mixed life stages, spray test on cotton plants. Particulars: for mortality at 3 ppm / mortality at 0.1 ppm: read-out: % mortality in comparison to untreated controls; for mortality at 10 ppm: 120 h, after 5 days, read-out: mortality in comparison with untreated controls. As to the method:
B.2 Cotton Aphid (Aphis gossypii, Mixed Life Stages)
as §1
Cotton plants at the cotyledon stage were infested with aphids prior to treatment by placing a heavily infested leaf from the main aphid colony on top of each cotyledon. Aphids were allowed to transfer overnight to accomplish an infestation of 80-100 aphids per plant and the host leaf was removed. The infested plants were then sprayed by an automated electrostatic plant sprayer equipped with an atomizing spray nozzle. The plants were dried in the sprayer fume hood, removed from the sprayer, and then maintained in a growth room under fluorescent lighting in a 24-hr photoperiod at 25° C. and 20-40% relative humidity. Aphid mortality on the treated plants, relative to mortality on untreated control plants, was determined after 5 days.

Another experiment has as its system Myzus persicae. Put plainly: B.5 Green peach aphid spray test on bell pepper plants. Particulars: for mortality at 10 ppm: 120 h, after 5 days, read-out: mortality in comparison with untreated controls; for mortality at 0.1 ppm: read-out: % mortality in comparison to untreated controls. As to the method: B.5 Green Peach Aphid (Myzus persicae)
as §1
Bell pepper plants at the first true-leaf stage were infested prior to treatment by placing heavily infested leaves from the main colony on top of the treatment plants. Aphids were allowed to transfer overnight to accomplish an infestation of 30-50 aphids per plant and the host leaves were removed. The infested plants were then sprayed by an automated electrostatic plant sprayer equipped with an atomizing spray nozzle. The plants were dried in the sprayer fume hood, removed, and then maintained in a growth room under fluorescent lighting in a 24 hour photoperiod at 25° C. and 20-40% relative humidity. Aphid mortality on the treated plants, relative to mortality on untreated control plants, was determined after 5 days.

In a further experiment the test system is Megoura viciae. Put plainly: B.4 Vetch aphid bean leaf disk microtiter test. To be noted: foliar, 144 h, 6 days, read-out: mortality in comparison with untreated controls. The method, then: B.4 Vetch Aphid (Megoura viciae)
The active compounds were formulated in 3:1 (vol:vol) water:DMSO with different concentrations of formulated compounds.
Bean leaf disks were placed into microtiterplates filled with 0.8% agar-agar and 2.5 ppm OPUS™. The leaf disks were sprayed with 2.5 μl of the test solution and 5 to 8 adult aphids were placed into the microtiter plates which were then closed and kept at 23±1° C. and 50±5% relative humidity under fluorescent light for 6 days. Mortality was assessed on the basis of vital, reproduced aphids. Aphid mortality and fecundity was then visually assessed.

The next experiment concerns Anthonomus grandis. Put plainly: B.6 Boll weevil insect diet microtiter test. Particulars: 120 h, egg and larval mortality, 5 days, read-out: mortality in comparison with untreated controls. The method, then: B.6 Boll Weevil (Anthonomus grandis)
The compounds were formulated in 3:1 (vol:vol) water:DMSO.
For evaluating control of boll weevil (Anthonomus grandis) the test unit consisted of 24-well-microtiter plates containing an insect diet and 20-30 A. grandis eggs. Different concentrations of formulated compounds were sprayed onto the insect diet at 20 μl, using a custom built micro atomizer, at two replications. After application, the microtiter plates were incubated at 23±1° C. and 50±5% relative humidity for 5 days. Egg and larval mortality was then visually assessed.

In the case of `Cc1c(C(=O)Nc2ccnnc2)cnn1C(C)C` [#5 of Table 14 in WO10/034737, reference compound], the mortality at 1 ppm in the experiment with Bemisia argentifolii amounted to 0%. The mortality at 500 ppm in the experiment on Nephotettix virescens came to 0%.
As to `CCN(C(=O)c1cnn(C(C)C)c1C)c1ccnnc1` [#5 of Table 98 in WO10/034737, reference compound], in the experiment on Bemisia argentifolii, the mortality at 1 ppm is 0% and the mortality at 3 ppm came out at 0%. For the same compound, the “feeding damage (FD)” value in the experiment on Plutella xylostella stood at 100%. For the same compound, the mortality at 500 ppm in the experiment on Dichromothrips corbetti amounted to 0%.
With `Cc1c(C(=O)Nc2ccnnc2)cnn1C(C)(C)C` [#7 of Table 14 in WO10/034737, reference compound], the mortality at 0.3 ppm in the experiment on Aphis craccivora turned out to be 0%. Moreover, the mortality at 3 ppm with Aphis gossypii is 25%.
In the case of `Cc1c(C(=O)N(C)c2cccnc2)cnn1CC(F)(F)F` [#173 in WO09/027393, reference compound], the mortality at 10 ppm with Bemisia argentifolii turned out to be 25%; in the experiment on Myzus persicae, 50%.
In the case of `CCN(C(=O)c1cnn(CC(C)C)c1C)c1ccnnc1` [#175 in WO10/034737, reference compound], in the experiment with Aphis craccivora, the mortality at 0.3 ppm came to 0%. For the same compound, the mortality at 0.1 ppm in the experiment with Aphis gossypii and with Myzus persicae was 0% throughout.
With `CCn1ncc(C(=O)N(C)c2cccnc2)c1C` [#180 in WO09/0027393, reference compound], in the experiment with Bemisia argentifolii, the mortality at 100 ppm was determined as 0%.
In the case of `Cc1c(C(=O)Nc2ccnnc2)cnn1C(C)(C)C#N` [I-32], in the experiment with Aphis craccivora, the mortality at 0.3 ppm was found to be 100%. Also, the mortality at 500 ppm with Aphis craccivora and in the experiment with Nephotettix virescens was no less than 75% each time. Moreover, the mortality at 2500 ppm in the experiment with Megoura viciae was no less than 75%. The mortality at 1 ppm in the experiment on Bemisia argentifolii stood at 100%. Besides, the mortality at 10 ppm with Bemisia argentifolii, in the experiment with Aphis gossypii and in the experiment with Myzus persicae was no less than 75% each time. Moreover, the mortality at 3 ppm in the experiment on Aphis gossypii was 90%.
In the case of `Cc1c(C(=O)Nc2ccnnc2)cnn1C(C(F)(F)F)C(F)(F)F` [I-34, 5-methyl-1-(2,2,2-trifluoro-1-trifluoromethyl-ethyl)-1H-pyrazole-4-carboxylic acid pyridazin-4-ylamide], the mortality at 500 ppm in the experiment with Aphis craccivora was no less than 75%. For the same compound, in the experiment with Megoura viciae, the mortality at 2500 ppm was no less than 75%. In addition, in the experiment with Myzus persicae, the mortality at 10 ppm was no less than 75%.
Regarding `Cc1c(C(=O)N(C)c2ccnnc2)cnn1C(C(F)(F)F)C(F)(F)F` [I-38, N,5-dimethyl-N-pyridazin-4-yl-1-[2,2,2-trifluoro-1-(trifluoromethyl)ethyl]pyrazole-4-carboxamide], the mortality at 500 ppm in the experiment on Aphis craccivora is no less than 75%. In addition, in the experiment with Megoura viciae, the mortality at 2500 ppm is no less than 75%. The mortality at 10 ppm in the experiment with Aphis gossypii and with Myzus persicae was no less than 75% throughout.
As for `CCN(C(=O)c1cnn(C(C)C(C)C)c1C)c1ccnnc1` (centres unmarked) [I-98], in the experiment on Aphis craccivora, the mortality at 0.3 ppm is 75% and the mortality at 500 ppm was no less than 75%. For the same compound, in the experiment with Megoura viciae, the mortality at 2500 ppm is no less than 75%. Besides, in the experiment on Bemisia argentifolii, the mortality at 3 ppm is 75% and the mortality at 10 ppm was no less than 75%. Moreover, in the experiment with Aphis gossypii, the mortality at 0.1 ppm is 95% and the mortality at 10 ppm is no less than 75%. Besides, in the experiment on Plutella xylostella, the “feeding damage (FD)” value is 25%. In addition, the mortality at 2500 ppm in the experiment with Anthonomus grandis is no less than 75%. In the experiment with Myzus persicae, the mortality at 0.1 ppm is 95% and the mortality at 10 ppm is no less than 75%.
Take `CCN(C(=O)c1cnn(C(C)C2(C#N)CC2)c1C)c1ccnnc1` (centres unmarked) [I-198]: the mortality at 500 ppm in the experiment on Aphis craccivora and in the experiment with Dichromothrips corbetti was no less than 75% in each case. The mortality at 1 ppm in the experiment with Bemisia argentifolii was found to be 100%. Further, the mortality at 10 ppm in the experiment with Bemisia argentifolii, in the experiment on Aphis gossypii and with Myzus persicae was no less than 75% throughout.
In the case of `CCN(C(=O)c1cnn(C(C)C(F)F)c1C)c1ccnnc1` (centres unmarked) [I-201], the mortality at 500 ppm with Aphis craccivora and in the experiment with Dichromothrips corbetti was no less than 75% throughout. The mortality at 1 ppm in the experiment with Bemisia argentifolii was 100%. The mortality at 10 ppm in the experiment with Bemisia argentifolii, in the experiment on Aphis gossypii and in the experiment with Myzus persicae was no less than 75% in each case.
Regarding `Cc1c(C(=O)N(C)c2cccnc2)cnn1C(C)C(F)(F)F` (centres unmarked) [I-377], in the experiment on Aphis craccivora, the mortality at 500 ppm is no less than 75%. Also, the mortality at 2500 ppm with Megoura viciae and with Anthonomus grandis was no less than 75% in each case. The mortality at 100 ppm in the experiment with Bemisia argentifolii was found to be 100%. Further, the mortality at 10 ppm with Bemisia argentifolii and with Aphis gossypii was no less than 75% throughout.

As usually defined, the mortality is the percentage killed.
